Here are results for one compound from patent US8304452B2, “Radical scavenger and active oxygen eliminating agent” (InBiotex Inc., priority 2005, dated 2012).

Assay [1] deals with chicken egg chorioallantois. Put plainly: Vascularization-suppressing action, chicken egg chorioallantois (Example 10). In kind it is in vivo. Particulars: 10 μL in 1% methylcellulose inside ring, 37° C., 48 hours; FIG. 10. As for the experimental part:
A ring of a 3-mm diameter was placed on a chicken egg chorioallantois on day 5 after oviposition. 10 μL of the test substance diluted with 1% methylcellulose was added inside the ring. After incubation at 37° C. for 48 hours, fat emulsion was injected into the chorioallantois. A part from which the ring was displaced was photographed. Using an image analysis software (Kurabo Industries, Ltd.), the vascular area was measured.

A further assay concerns human LDL. Nature of the assay: Lipid peroxide-suppressing action: CuSO4-induced LDL oxidation, TBARS assay (Example 1). The class given is biochemical. Particulars: for Amount of TBARS: 0.2 mg/mL LDL + 5 μM CuSO4, 37° C., 3 hours, mean, n=2. On the procedure: As an action of capturing free group (free radical-scavenging action), the effect of N-β-alanyl-5-S-glutathionyl-3,4-dihydroxyphenylalanine (5-S-GAD) on LDL oxidation was examined. As controls, dopamine and Carnosine (under trade name; N-acetylcarnosine as the ingredient name) used as eye drops for cataract were used. LDL was prepared by a fractionation and centrifugation method. A fraction at a specific gravity of 1.019 to 1.063 g/mL in serum was defined as human LDL. 5 μM CuSO4, 5-S-GAD (3 to 100 μM) and N-acetyl-carnosine (100 μM to 10 mM) or L-carnosine (10 μM to 10 mM) were added to 0.2 mg/mL LDL, for incubation at 37° C. for 3 hours. After termination of the incubation, TBARS (a substance reactive with thiobarbituric acid) was assayed. Although the TBA reaction is a non-specific reaction, the reaction is used for a method of assaying various lipid peroxide products including malone dialdehyde. An experiment of peroxidation with copper sulfate was done twice (N=2). An aqueous solution containing 3.75 mg/mL thiobarbituric acid (TBA), 150 mg/mL trichloroacetic acid (TCA) and 0.25 N hydrochloric acid (HCl) was prepared as the TBA reagent, while tetramethoxypropane was used to prepare standard solutions (2, 5, 10, 20, 40 μM). 100 μL each of an LDL sample or a standard solution was added together with 200 μL of the TBA reagent into an Eppendorf tube (1.5 mL), which was then sealed with a cap for thorough mixing. After heating at 95° C. for 15 minutes, the resulting mixture was cooled in water and centrifuged at 3000 rpm for 5 minutes. The supernatant was assayed of the absorbance (535 nm). Based on the absorbance of the standard solutions, a standard curve was prepared. Based on the standard curve, the amount of TBARS in the LDL sample was calculated (in nmol/mg LDL protein) (mean, n=2, see Table 1 and FIG. 1).

The nature of assay [2]: Superoxide anion-scavenging activity, DMPO spin trapping ESR (Example 8). The class given is biochemical. The note with it: FIG. 8. On the procedure:
In a 50 mM phosphate buffer (pH 7.8), 500 μM xanthine and 75 mU/mL xanthine oxidase reacted together. The generated superoxide anion (O^2−) was assayed with a spin trapping agent (DMPO) by the electron spin resonance method (ESR). The resulting signal intensity (I) was normalized with the signal intensity of the inner standard manganese (S). The resulting value was determined as the relative intensity (RI), for comparison between the value in case of the addition of the test substance and the value in case of the addition of PBS. The ESR was measured under the following conditions. MicroWave Powder: 8 mW; Field: 335±5 mT; Scan Time: 2 min; Mod.: 0.1 mT; Amplitude:×125-400; Time Constant: 0.03 sec.

Consider `NCCC(=O)N[C@@H](Cc1cc(O)c(O)c(SC[C@H](NC(=O)CC[C@H](N)C(=O)O)C(=O)NCC(=O)O)c1)C(=O)O` [5-S-GAD, N-β-alanyl-5-S-glutathionyl-3,4-dihydroxyphenylalanine], for which, in assay [1], the “suppression of vascularization (vascular area)” value is recorded as “suppressed vascularization significantly”. For the same compound, the “Amount of TBARS” value is reported as 85.683 nmol/mg LDL protein in the assay with human LDL (10 μM added), 4.290 nmol/mg LDL protein with human LDL (30 μM added) and 2.649 nmol/mg LDL protein with human LDL (100 μM added). Moreover, the “anti-oxidation action, level relative to Carnosine (under trade name)” value in the assay with human LDL (LDL oxidation, TBARS) was 10 fold. In addition, the “anti-oxidation action, level relative to dopamine” value with human LDL (LDL oxidation, TBARS) is reported as “the same level as that of dopamine”. Further, the “superoxide anion (O^2−)-scavenging action compared with TEMPOL (in words)” value in assay [2] is “excellent superoxide anion (O^2−)-scavenging action compared with TEMPOL”.
